Assay results from patent US20090018194A1, “Use of antimicrobial agents derived from alliaceous plants for the prevention and control of crop diseases, post-harvest rot and as environmental disinifectant products” (DMC Research Center, S.L., priority 2007, published 2009).

Assays:
[1] = test system: Micrococcus luteus ATCC 15307; experiment: agar diffusion test with impregnated cellulose discs; assay type: cell-based; conditions: incl. 6 mm disc
[2] = test system: Aspergillus terreus CECT 2663; experiment: as above; assay type: cell-based; conditions: incl. 6 mm disc
[3] = test system: Penicillium sp. (CPC-PT-2); experiment: agar diffusion test, wild fungi isolated from crown rot in bananas; assay type: cell-based; conditions: incl. 6 mm disc
[4] = test system: Colletotrichum sp. (CPC-PC-6); experiment: as above; assay type: cell-based; conditions: incl. 6 mm disc
Procedure: (§1) A. The “in vitro” antimicrobial activity of these compounds was tested (referenced as PTS and PTSO), at different doses, as well as their activity against a broad spectrum of bacteria, fungi and yeasts. The tests were conducted against standard micro-organisms (reference strains from different collections of standard crops) and also against wild strains isolated from different types of rot and fruits and other affected crops.
(§2) These tests of antimicrobial capacity were conducted according to the agar diffusion technique, using cellulose discs 6 mm in diameter, impregnated with the different doses under study. For the assessment of the anti-fungal capability, the medium Sabouraud glucosate agar 2% was used, inoculated with suspensions of spores prepared to a concentration on the order of 10^8 cells/ml. To assess the antibacterial capability, the cultivation medium Müller-Hinton agar was used, inoculated with suspensions of bacteria prepared to a concentration of 10^6 cells/ml.
(§3) Once the plates were inoculated, the discs previously impregnated with the different test doses of each of the compounds to be analyzed were put in place. The reading was taken after incubation of the plates by measuring the zone of inhibition that appeared, and the result was expressed in mm corresponding to the diameter of the halo that appeared (including the 6 mm of the cellulose disc).
(§4) Once the screening of the anti-microbial capability of the compounds claimed by the invention had been performed over a broad range of reference strains, their efficiency was corroborated against wild strains, which we isolated as specific pathogens that affect different crops of different geographic origins.

[5] = test system: Colletotrichum sp. (CPC-PT-5); experiment: as above; assay type: cell-based; conditions: incl. 6 mm disc
Procedure: as §1, §2, §3, §4

Fusarium sp. (CPC-PT-7) = experiment: as above; assay type: cell-based; conditions: incl. 6 mm disc
Procedure: as §1, §2, §3, §4

Fusarium sp. (CPC-PT-8) = experiment: as above; assay type: cell-based; conditions: incl. 6 mm disc
Procedure: as §1, §2, §3, §4

Fusarium sp. (CPC-PT-9) = experiment: as above; assay type: cell-based; conditions: incl. 6 mm disc
Procedure: as §1, §2, §3, §4

[6] = test system: Unidentified yeast (CPC-PT-10); experiment: as above; assay type: cell-based; conditions: incl. 6 mm disc
Procedure: as §1, §2, §3, §4

Botrytis cinerea = experiment: field control of Botrytis in strawberries, foliar spraying; assay type: in vivo; conditions: after 12 days
FUNGI = experiment: environmental disinfection of banana storage and ripening rooms by fogging, air sampling; conditions: fogging of 1500 ppm solution; for MICROBE COUNTS FUNGI CFU/dish: 80 liters collected/dish; for % REDUCTION OF ENVIRONMENTAL MICROBIOTA Fungal population: after vs before treatment
Procedure: (§5) A study was conducted to verify the environmental disinfecting capability of the compound PTS in rooms of a fruit and vegetable processing plant, in particular one that handled bananas. For test purposes, three separate rooms of the central were sampled, and the environmental quality was studied before and after the treatment with PTS. First, an environmental sample was taken in each room prior to the treatment, using an […]-Omega air sampling device manufactured by LCB, by suctioning a volume of air set at 80 L which impacted over the different cultivation media selected. The samples were taken in duplicate in the areas to be analyzed. PCA agar medium was used to count the total mesophilic aerobes, and the medium Rose Bengal agar was used to count the fungi. The environmental disinfectant treatment comprised fogging of a 1500 ppm solution of PTS. 5 liters of this solution were fogged for each 1000 m^3 of the room. […] Several hours after the fogging, the sampling operation was repeated in the different rooms that had been treated as described above. […] Once the incubation time had elapsed, the readings were taken by counting the microorganisms that appeared in each type of dish, expressed as cfu/dish.

Total mesophilic AEROBES = experiment: as above; conditions: fogging of 1500 ppm solution; for MICROBE COUNTS Total mesophilic AEROBES CFU/dish: 80 liters collected/dish; for % REDUCTION OF ENVIRONMENTAL MICROBIOTA Population of total mesophilic aerobes: after vs before treatment
Procedure: as §5

[7] = Zone 1 of the ripening room after treatment
[8] = Zone 2 of the ripening room after treatment

Compound: CCCS[S+]([O-])CCC (centres unmarked) [PTS, Propyl Propyl Thiosulfinate]
- diameter of the microbial inhibition halo ([1]; 25 ppm): 19 mm
- diameter of the microbial inhibition halo ([1]; 50 ppm): 25 mm
- diameter of the microbial inhibition halo ([1]; 100 ppm): 32 mm
- diameter of the microbial inhibition halo ([2]; 25 ppm): 12 mm
- diameter of the microbial inhibition halo ([2]; 50 ppm): 22 mm
- diameter of the microbial inhibition halo ([2]; 100 ppm): 25 mm
- diameter of the microbial inhibition halo ([3]; 30 ppm): 0 mm
- diameter of the microbial inhibition halo ([3]; 60 ppm): 0 mm
- diameter of the microbial inhibition halo ([3]; 125 ppm): 0 mm
- diameter of the microbial inhibition halo ([3]; 250 ppm): 15 mm
- diameter of the microbial inhibition halo ([3]; 500 ppm): 25 mm
- diameter of the microbial inhibition halo ([3]; 1000 ppm): 25 mm
- diameter of the microbial inhibition halo ([4]; 30 ppm): 20 mm
- diameter of the microbial inhibition halo ([4]; 60 ppm): 30 mm
- diameter of the microbial inhibition halo ([4]; 125 ppm): 35 mm
- diameter of the microbial inhibition halo ([4]; 250 ppm): 47 mm
- diameter of the microbial inhibition halo ([4]; 500 ppm): 48 mm
- diameter of the microbial inhibition halo ([4]; 1000 ppm): 45 mm
- diameter of the microbial inhibition halo ([5]; 30 ppm): 10 mm
- diameter of the microbial inhibition halo ([5]; 60 ppm): 20 mm
- diameter of the microbial inhibition halo ([5]; 125 ppm): 30 mm
- diameter of the microbial inhibition halo ([5]; 250 ppm): 40 mm
- diameter of the microbial inhibition halo ([5]; 500 ppm): 43 mm
- diameter of the microbial inhibition halo ([5]; 1000 ppm): 43 mm
- diameter of the microbial inhibition halo (Fusarium sp. (CPC-PT-7); 30 ppm): 0 mm
- diameter of the microbial inhibition halo (Fusarium sp. (CPC-PT-7); 60 ppm): 0 mm
- diameter of the microbial inhibition halo (Fusarium sp. (CPC-PT-7); 125 ppm): 15 mm
- diameter of the microbial inhibition halo (Fusarium sp. (CPC-PT-7); 250 ppm): 25 mm
- diameter of the microbial inhibition halo (Fusarium sp. (CPC-PT-7); 500 ppm): 25 mm
- diameter of the microbial inhibition halo (Fusarium sp. (CPC-PT-7); 1000 ppm): 35 mm
- diameter of the microbial inhibition halo (Fusarium sp. (CPC-PT-8); 30 ppm): 0 mm
- diameter of the microbial inhibition halo (Fusarium sp. (CPC-PT-8); 60 ppm): 10 mm
- diameter of the microbial inhibition halo (Fusarium sp. (CPC-PT-8); 125 ppm): 12 mm
- diameter of the microbial inhibition halo (Fusarium sp. (CPC-PT-8); 250 ppm): 15 mm
- diameter of the microbial inhibition halo (Fusarium sp. (CPC-PT-8); 500 ppm): 20 mm
- diameter of the microbial inhibition halo (Fusarium sp. (CPC-PT-8); 1000 ppm): 20 mm
- diameter of the microbial inhibition halo (Fusarium sp. (CPC-PT-9); 30 ppm): 0 mm
- diameter of the microbial inhibition halo (Fusarium sp. (CPC-PT-9); 60 ppm): 0 mm
- diameter of the microbial inhibition halo (Fusarium sp. (CPC-PT-9); 125 ppm): 0 mm
- diameter of the microbial inhibition halo (Fusarium sp. (CPC-PT-9); 250 ppm): 15 mm
- diameter of the microbial inhibition halo (Fusarium sp. (CPC-PT-9); 500 ppm): 30 mm
- diameter of the microbial inhibition halo (Fusarium sp. (CPC-PT-9); 1000 ppm): 33 mm
- diameter of the microbial inhibition halo ([6]; 30 ppm): 40 mm
- diameter of the microbial inhibition halo ([6]; 60 ppm): 45 mm
- diameter of the microbial inhibition halo ([6]; 125 ppm): 50 mm
- diameter of the microbial inhibition halo ([6]; 250 ppm): 55 mm
- diameter of the microbial inhibition halo ([6]; 500 ppm): 63 mm
- diameter of the microbial inhibition halo ([6]; 1000 ppm): 65 mm
- % of fruit affected (Botrytis cinerea; 2000 ppm): 3.8%
- No. of fruits affected (Botrytis cinerea; 2000 ppm, 150 fruits): 6
- % of fruit affected (Botrytis cinerea; 2400 ppm): 3.1%
- No. of fruits affected (Botrytis cinerea; 2400 ppm, 148 fruits): 5
- % of fruit affected (Botrytis cinerea; 4800 ppm): 3.1%
- No. of fruits affected (Botrytis cinerea; 4800 ppm, 141 fruits): 4
- % of fruit affected (Botrytis cinerea; 9600 ppm): 2%
- No. of fruits affected (Botrytis cinerea; 9600 ppm, 114 fruits): 2
- MICROBE COUNTS FUNGI CFU/m^3 (FUNGI; Entry room after treatment): 707 CFU/m^3
- MICROBE COUNTS FUNGI CFU/dish (FUNGI; Entry room after treatment): 51 CFU/dish
- % REDUCTION OF ENVIRONMENTAL MICROBIOTA Fungal population (FUNGI; Entry room): 70%
- MICROBE COUNTS FUNGI CFU/m^3 (FUNGI; [7]): 273 CFU/m^3
- MICROBE COUNTS FUNGI CFU/dish (FUNGI; [7]): 21 CFU/dish
- % REDUCTION OF ENVIRONMENTAL MICROBIOTA Fungal population (FUNGI; Zone 1 of the ripening room): 23%
- MICROBE COUNTS FUNGI CFU/m^3 (FUNGI; [8]): 328 CFU/m^3
- MICROBE COUNTS FUNGI CFU/dish (FUNGI; [8]): 25 CFU/dish
- % REDUCTION OF ENVIRONMENTAL MICROBIOTA Fungal population (FUNGI; Zone 2 of the ripening room): 36%
- MICROBE COUNTS Total mesophilic AEROBES CFU/m^3 (Total mesophilic AEROBES; Entry room after treatment): 314 CFU/m^3
- MICROBE COUNTS Total mesophilic AEROBES CFU/dish (Total mesophilic AEROBES; Entry room after treatment): 24 CFU/dish
- % REDUCTION OF ENVIRONMENTAL MICROBIOTA Population of total mesophilic aerobes (Total mesophilic AEROBES; Entry room): 65%
- MICROBE COUNTS Total mesophilic AEROBES CFU/m^3 (Total mesophilic AEROBES; [7]): 287 CFU/m^3
- MICROBE COUNTS Total mesophilic AEROBES CFU/dish (Total mesophilic AEROBES; [7]): 22 CFU/dish
- % REDUCTION OF ENVIRONMENTAL MICROBIOTA Population of total mesophilic aerobes (Total mesophilic AEROBES; Zone 1 of the ripening room): 69%
- MICROBE COUNTS Total mesophilic AEROBES CFU/m^3 (Total mesophilic AEROBES; [8]): 1487 CFU/m^3
- MICROBE COUNTS Total mesophilic AEROBES CFU/dish (Total mesophilic AEROBES; [8]): 96 CFU/dish
- % REDUCTION OF ENVIRONMENTAL MICROBIOTA Population of total mesophilic aerobes (Total mesophilic AEROBES; Zone 2 of the ripening room): 58%
